The numbers were not newly measured in US20260335319A1, “INJECTABLE COMPOSITIONS OF METOLAZONE” (CIPLA LIMITED, priority 2023, published 2026), which cites them from elsewhere.

Like-named read-outs stand apart in the source and are kept apart here.

The conditions of series [1]: relative to water.

`Cc1ccccc1N1C(=O)c2cc(S(N)(=O)=O)c(Cl)cc2NC1C` (centres unmarked) [Metolazone, 7-chloro-1,2,3,4-tetrahydro-2-methyl-3-(2-methylphenyl)-4-oxo-6-quinazolinesulfonamide]: the absorption result by setting is: (metolazone, general) “variable absorption”; (oral immediate release tablet) “erratic absorption”. Besides, the bioavailability entry reads like this: (metolazone, general) “poor bioavailability”; (oral immediate release tablet) “variable bioavailability”. Besides, the “solubility in alkali and organic solvents” value in series [1] was “more soluble in alkali, and organic solvents”.
